Experimental data: PubChem BioAssay AID330 (DTP/NCI, 2004)
Where “and” joins values, the source holds several entries; their conditions need not be identical. Equal values may be shown once. Inconclusive results and toxic doses are left out. The calls were made as follows: active = survival T/C of 150% or more; inactive = T/C below 125% in these data.

Test system: P388 leukemia ip, CD2F1 mice, survival T/C
Experiment: NCI In Vivo Anticancer Drug Screen. Data for tumor model P388 Leukemia (intraperitoneal) in CD2F1 (CDF1) mice
Conditions: endpoint: median survival time, higher = longer survival
Outline: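 Mice carrying the transplanted tumor received test compound or vehicle. Survival was recorded in each group, and the value is the treated-group measurement divided by that of the vehicle-treated control group.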

[1] = dose: 100.0 mg/kg/injection, schedule: Q01DX009 (ip), vehicle: saline
[2] = dose: 200.0 mg/kg/injection, schedule: Q01DX009 (ip), vehicle: saline
[3] = dose: 400.0 mg/kg/injection, schedule: Q01DX009 (ip), vehicle: saline
[4] = dose: 50.0 mg/kg/injection, schedule: Q01DX005 (ip), vehicle: saline
[5] = dose: 100.0 mg/kg/injection, schedule: Q01DX005 (ip), vehicle: saline
[6] = dose: 25.0 mg/kg/injection, schedule: Q01DX009 (ip), vehicle: Klucel (hydroxypropylcellulose) (HPC)
[7] = dose: 50.0 mg/kg/injection, schedule: Q01DX009 (ip), vehicle: Klucel (hydroxypropylcellulose) (HPC)
[8] = dose: 100.0 mg/kg/injection, schedule: Q04DX003 (ip), vehicle: saline with Tween-80
[9] = dose: 400.0 mg/kg/injection, schedule: Q04DX003 (ip), vehicle: saline with Tween-80
[10] = dose: 60.0 mg/kg/injection, schedule: Q01DX005 (ip), vehicle: Klucel (hydroxypropylcellulose) (HPC)
[11] = dose: 120.0 mg/kg/injection, schedule: Q01DX005 (ip), vehicle: Klucel (hydroxypropylcellulose) (HPC)
[12] = dose: 60.0 mg/kg/injection, schedule: Q01DX005 (ip), vehicle: saline with Tween-80
[13] = dose: 120.0 mg/kg/injection, schedule: Q01DX005 (ip), vehicle: saline with Tween-80
[14] = dose: 240.0 mg/kg/injection, schedule: Q01DX005 (ip), vehicle: saline with Tween-80
[15] = dose: 50.0 mg/kg/injection, schedule: Q01DX009 (ip), vehicle: saline with Tween-80
[16] = dose: 100.0 mg/kg/injection, schedule: Q01DX009 (ip), vehicle: saline with Tween-80
[17] = dose: 200.0 mg/kg/injection, schedule: Q01DX009 (ip), vehicle: saline with Tween-80
[18] = dose: 6.25 mg/kg/injection, schedule: Q01DX005 (ip), vehicle: Klucel (hydroxypropylcellulose) (HPC)
[19] = dose: 12.5 mg/kg/injection, schedule: Q01DX005 (ip), vehicle: Klucel (hydroxypropylcellulose) (HPC)
[20] = dose: 25.0 mg/kg/injection, schedule: Q01DX005 (ip), vehicle: Klucel (hydroxypropylcellulose) (HPC)
[21] = dose: 25.0 mg/kg/injection, schedule: Q01DX009 (ip), vehicle: saline with Tween-80
[22] = dose: 100.0 mg/kg/injection, schedule: Q01DX009 (ip), vehicle: Klucel (hydroxypropylcellulose) (HPC)
[23] = dose: 200.0 mg/kg/injection, schedule: Q01DX009 (ip), vehicle: Klucel (hydroxypropylcellulose) (HPC)
[24] = dose: 25.0 mg/kg/injection, schedule: Q01DX005 (ip), vehicle: saline with Tween-80
[25] = dose: 50.0 mg/kg/injection, schedule: Q01DX005 (ip), vehicle: saline with Tween-80
[26] = dose: 50.0 mg/kg/injection, schedule: Q01DX005 (ip), vehicle: Klucel (hydroxypropylcellulose) (HPC)
[27] = dose: 100.0 mg/kg/injection, schedule: Q01DX005 (ip), vehicle: Klucel (hydroxypropylcellulose) (HPC)
[28] = dose: 200.0 mg/kg/injection, schedule: Q01DX005 (ip), vehicle: Klucel (hydroxypropylcellulose) (HPC)
[29] = dose: 100.0 mg/kg/injection, schedule: Q01DX005 (ip), vehicle: saline with Tween-80
[30] = dose: 200.0 mg/kg/injection, schedule: Q01DX005 (ip), vehicle: saline with Tween-80

Measured: T/C

O=C(NC1CCCCC1)Oc1ccc[nH]c1=O
inactive: dose: 25.0 mg/kg/injection, schedule: Q01DX009 (ip), vehicle: saline 92 % of control and 93 % of control | dose: 25.0 mg/kg/injection, schedule: Q01DX009 (sc), vehicle: saline with Tween-80 101 % of control and 109 % of control | dose: 50.0 mg/kg/injection, schedule: Q01DX009 (ip), vehicle: saline 102 % of control and 104 % of control | dose: 50.0 mg/kg/injection, schedule: Q01DX009 (sc), vehicle: saline with Tween-80 106 % of control and 107 % of control | [1] 105 % of control and 98 % of control | dose: 100.0 mg/kg/injection, schedule: Q01DX009 (sc), vehicle: saline with Tween-80 102 % of control and 117 % of control | [2] 102 % of control and 105 % of control | dose: 200.0 mg/kg/injection, schedule: Q01DX009 (sc), vehicle: saline with Tween-80 108 % of control and 111 % of control | [3] 116 % of control and 118 % of control | dose: 400.0 mg/kg/injection, schedule: Q01DX009 (sc), vehicle: saline with Tween-80 104 % of control and 107 % of control | dose: 600.0 mg/kg/injection, schedule: Q01DX009 (sc), vehicle: saline with Tween-80 102 % of control and 113 % of control

COC1(OC)C=NNc2nncn21
inactive: [4] 105 % of control | [5] 107 % of control

COc1ccc(/C(C[P+](c2ccccc2)(c2ccccc2)c2ccccc2)=N/OC(C)(C)OC)cc1
inactive: dose: 6.25 mg/kg/injection, schedule: Q01DX009 (ip), vehicle: Klucel (hydroxypropylcellulose) (HPC) 98 % of control | dose: 12.5 mg/kg/injection, schedule: Q01DX009 (ip), vehicle: Klucel (hydroxypropylcellulose) (HPC) 100 % of control | [6] 106 % of control | [7] 101 % of control

COCCCNS(=O)(=O)c1ncnc2nc[nH]c12
inactive: [1] 104 % of control | [8] 108 % of control | [2] 100 % of control | [3] 86 % of control | [9] 108 % of control

CN(C)C(=O)c1nc(CNC(=O)CN)n(-c2ccc(Cl)cc2C(=O)c2ccccc2)n1
inactive: [10] 103 % of control | [11] 100 % of control

CN(C)CCOC(=O)C(C)(C)Sc1ccc(Cl)cc1
inactive: [12] 107 % of control | [13] 92 % of control | [14] 98 % of control

CC(C)(C)c1cc(N)cc([N+](=O)[O-])c1
inactive: dose: 100.0 mg/kg/injection, schedule: Q04DX002 (ip), vehicle: other 109 % of control | dose: 200.0 mg/kg/injection, schedule: Q04DX002 (ip), vehicle: other 102 % of control

N#C/C=C1\NC(=O)CS1
inactive: [15] 95 % of control | [16] 100 % of control | [17] 95 % of control

C[CH2][Sn]([CH2]C)[O][Sn]([Cl])([CH2]C)[CH2]C
inactive: dose: 3.12 mg/kg/injection, schedule: Q01DX005 (ip), vehicle: Klucel (hydroxypropylcellulose) (HPC) 116 % of control | [18] 118 % of control and 121 % of control | [19] 104 % of control and 121 % of control | [20] 120 % of control

COc1ncnc2c1ccn2C1OC(CO)C(O)C1O (configuration not stated)
inactive: [18] 107 % of control | [19] 89 % of control

COc1cc2c(cc1OC)C(CSC)Cc1cc(OC)c(OC)cc1N(C)CCC2 (configuration not stated)
inactive: [8] 102 % of control | dose: 200.0 mg/kg/injection, schedule: Q04DX003 (ip), vehicle: saline with Tween-80 93 % of control | [9] 93 % of control

CCCCCCCCCCCCCCCC[N+](C)(C)CC(=O)O
inactive: dose: 12.5 mg/kg/injection, schedule: Q01DX009 (ip), vehicle: saline with Tween-80 104 % of control | [21] 86 % of control | [15] 105 % of control

O=C(c1ccc(Cl)nc1)c1cccs1
inactive: dose: 50.0 mg/kg/injection, schedule: Q01DX005 (ip), vehicle: distilled water + alcohol 98 % of control | dose: 100.0 mg/kg/injection, schedule: Q01DX005 (ip), vehicle: distilled water + alcohol 108 % of control | dose: 200.0 mg/kg/injection, schedule: Q01DX005 (ip), vehicle: distilled water + alcohol 110 % of control

COc1cc(OC)c(C2CC(C)(N3CCCC3)Oc3cc4c(cc32)OCO4)c(OC)c1 (configuration not stated)
inactive: [12] 94 % of control | [13] 91 % of control | [14] 87 % of control

O=C(Nc1nccs1)Nc1ccccc1C(F)(F)F
inactive: [6] 115 % of control | [7] 108 % of control | [22] 106 % of control | [16] 92 % of control | [23] 111 % of control | [17] 90 % of control | dose: 400.0 mg/kg/injection, schedule: Q01DX009 (ip), vehicle: saline with Tween-80 88 % of control

COc1cc(NCCCCCNC(C)(C)C)c2ncccc2c1
inactive: dose: 12.5 mg/kg/injection, schedule: Q01DX005 (ip), vehicle: saline with Tween-80 98 % of control | [24] 98 % of control | [25] 100 % of control and 103 % of control

COc1c(/C=C/C=O)cc2c(c1OC)OCO2
inactive: [20] 97 % of control | [26] 97 % of control | [27] 104 % of control | [28] 100 % of control

CCOC(=O)C(C)(Br)C(=O)OCC
inactive: [21] 118 % of control | [15] 109 % of control | [16] 109 % of control

Cc1nnsc1C(=O)NCc1c(F)cccc1Cl
inactive: [26] 97 % of control | [27] 99 % of control | [28] 98 % of control

Cc1ncc(CNC(=O)NCCCl)c(N)n1
inactive: [7] 102 % of control | [22] 103 % of control | [23] 108 % of control

Nc1nc(=O)[nH]c([O-])c1N=O.Nc1nc(=O)[nH]c([O-])c1N=O.[Ag+].[Ag+]
inactive: dose: 15.0 mg/kg/injection, schedule: Q01DX005 (ip), vehicle: saline with Tween-80 104 % of control and 86 % of control | dose: 30.0 mg/kg/injection, schedule: Q01DX005 (ip), vehicle: saline with Tween-80 105 % of control and 89 % of control

O=C1OCC/C1=C\NCCCCCCCCN/C=C1\CCOC1=O
inactive: [10] 97 % of control | [11] 102 % of control | dose: 240.0 mg/kg/injection, schedule: Q01DX005 (ip), vehicle: Klucel (hydroxypropylcellulose) (HPC) 105 % of control

COc1cc(/C(C)=C\CP(=O)(c2ccccc2)c2ccccc2)c(C(=O)O)cc1C
inactive: [25] 106 % of control | [29] 106 % of control | [30] 103 % of control

COc1ccc(C2=C/C(=C/c3ccc(N(CCC#N)CCC#N)cc3)C(=O)O2)cc1
inactive: dose: 100.0 mg/kg/injection, schedule: Q01DX001 (ip), vehicle: saline with Tween-80 97 % of control | dose: 200.0 mg/kg/injection, schedule: Q01DX001 (ip), vehicle: saline with Tween-80 95 % of control | dose: 400.0 mg/kg/injection, schedule: Q01DX001 (ip), vehicle: saline with Tween-80 92 % of control

COc1ccc(/C=N/NC(=O)c2ccc(OCc3nc4ccccc4[nH]3)cc2)cc1
inactive: [24] 100 % of control | [25] 105 % of control | [29] 100 % of control | [30] 100 % of control

O=C1C[C@@H](c2ccccc2)NCCCCN(O)CCCN1
inactive: dose: 25.0 mg/kg/injection, schedule: Q01DX005 (ip), vehicle: saline 106 % of control | [4] 97 % of control | [5] 100 % of control

O=C(c1ccccc1)[C@@]12COc3ccccc3[C@@H]1ON=C2c1ccccc1
inactive: [26] 89 % of control | [27] 88 % of control | [28] 91 % of control

O=C1CN2C=CC=CC2=NN1
inactive: dose: 60.0 mg/kg/injection, schedule: Q01DX005 (ip), vehicle: saline 100 % of control | dose: 120.0 mg/kg/injection, schedule: Q01DX005 (ip), vehicle: saline 99 % of control | dose: 240.0 mg/kg/injection, schedule: Q01DX005 (ip), vehicle: saline 101 % of control
